Reference: patent publication US20220142948A1, “COMPOSITIONS AND METHODS FOR MODULATING METABOLIC REGULATORS OF T CELL PATHOGENICITY” (The Broad Institute, Inc., priority 2019, published 2022)
“Also recorded” adds a separate entry of the source.

Legend:
[1] = test system: MOG35-55 specific T cells; experiment: Antigen-specific recall response of draining lymph node cells to MOG35-55 (thymidine incorporation, Legendplex); assay type: in vivo, mouse
Procedure: FIG. 37A-37I—Targeting ODC1 and SAT1 alleviate EAE. (A) Schematics of the polyamine pathway; (B-D) The effects of chemical inhibition of ODC1 by DFMO on EAE. Wildtype mice were immunized with MOG35-55/CFA to induce experimental autoimmune encephalomyelitis and followed for clinical scoring. DFMO were provided in drinking water from day 0 for 10 days in experimental group. B, Clinical score over time. […] C, Antigen-specific cell proliferation is measured by thymidine incorporation after culturing cells isolated from draining lymph node of mice (d15 post immunization) with increasing dose of MOG35-55 peptide for 3 days. D, Flow cytometric analysis of intracellular Foxp3 expression in T cells isolated from CNS at day 15 post immunization. (E-I) The effects of genetic perturbation of SAT1. E, The effects of SAT1 deficiency on metabolome. Abundance of metabolites in the polyamine pathway were determined by LC/MS based metabolomics. Th17n and Th17p cells were differentiated in vitro from naïve cells isolated from WT or SAT1^−/− mice. (F-I) The effects of SAT1 deficiency on EAE. EAE were induced as in (B) in wildtype and SAT1^fl/flCD4^cre mice. F, Clinical score (left) and histological score (right) showing the number of CNS infiltrates show representative experiment with 5 WT and 8 CKO mice. G-H, Cells were isolated from draining lymph node of mice (d23 post immunization) and co-cultured with increasing dose of MOG35-55 peptide for 3 days. Antigen-specific cell proliferation is measured by thymidine incorporation (G) and antigen-specific cytokine secretion by legendplex (H). I, Flow cytometry analysis of intracellular transcription factor expression in CD4 T cells isolated from CNS day 15 post immunization. Linear regression analysis (b, c, f, g), two-way anova (e) and student t test (d, i) were used for statistical analysis.
FIG. 46A-46J—EGCG exacerbates and DHEA ameliorates Th17-induced EAE in vivo. 2D2 TCR-transgenic Th17 cells were adoptively transferred after differentiation in vitro in the presence of an inhibitor or vehicle as indicated. (A, C, G) Clinical outcome of EAE; (B, D) Histological score based on cell infiltrates in meninges and parenchyma of CNS; (E, F) Draining lymph node (cervical) from respective mice were isolated and pulsed with increasing dose of MOG35-55 peptide for 3 days and (E) subjected to thymidine incorporation assay; or (F) measurement of cytokine secretion by Legendplex and flow cytometry. Concentrations were normalized through division by the respective response to no antigen control (H-I) Independent pathological report of CNS isolated from mice with EAE at end point (d35 for EGCG experiments; d28 for DHEA experiment); Optic nerves were not found in the histologic section from one animal in the EGCG+IL-23 group. (J) Representative histology of spinal cord and spinal nerve roots. […] PC, posterior column; PH, posterior horn. Individual mouse numbers are indicated. […] All are H. & E., 40× objective. Three similar experiments were performed.

[2] = test system: Th17 cells (Th17n, Th17p); experiment: Legendplex analysis of cytokines in culture supernatant; assay type: cell-based, mouse
Procedure: Legendplex. Cytokine concentrations in supernatants of in vitro cultures were analyzed by the LegendPlex Mouse Th Cytokine Panel (13-plex) (BioLegend) according to the manufacturer's instructions and analyzed on a FACS LSR II (BD Biosciences).
Seahorse assay was performed and seahorse media was prepared following manufacturer instructions (Agilent). Cells were re-stimulated with PMA/ionomycin for four hours in the presence of brefaldin and monensin before analysis for cytokines by intracellular cytokine staining. Cytokine concentrations in supernatants of in vitro cultures were analyzed by the LegendPlex Mouse Th Cytokine Panel (13-plex) (BioLegend) according to the manufacturer's instructions and analyzed on a FACS LSR II (BD Biosciences).

[3] = test system: Th17 cells (Th17n, Th17p); experiment: T cell differentiation culture and flow cytometry (intracellular cytokine and transcription factor staining, CellTrace proliferation)
Procedure: Naïve CD4+CD44-CD62L+CD25-T cells were sorted using BD FACSAria sorter and activated with plate-bound anti-CD3 (1 μg/ml) and antiCD28 antibodies (2 μg/ml) in the presence of cytokines at a concentration of 5×10^5 cells/ml.
Naïve CD4+CD44-CD62L+CD25− T cells with or without including IL-17A.GFP+ were sorted using BD FACSAria sorter and activated with plate-bound anti-CD3 and antiCD28 antibodies (each 1 μg/ml) in the presence of cytokines at a concentration of 5×10^5 cells/ml. For T cell differentiations the following combinations of cytokines were used: pathogenic Th17 (Th17p): 25 ng/ml rmIL-6, 20 ng/ml rmIL-1b (both Miltenyi Biotec) and 20 ng/ml rmIL-23 (R&D systems); non-pathogenic Th17 (Th17n): 25 ng/ml rmIL-6 and 2 ng/ml of rhTGFb1 (Miltenyi Biotec). For differentiation experiments, cells were harvested at 72 hours and were performed in the presence or absence of 50 μM EGCG (Selleck Chemicals), 50 μM DHEA, 40 μM DCA, 10 μM Shikonin (all Sigma) as indicated.
Proliferation was assessed by staining with CellTrace Violet (Thermo Fisher Scientific) per manufacturer's instructions. All stainings were analyzed on a FACS LSR II (BD Bioscience) and using FlowJo software.

[4] = supernatant from both Th17n and Th17p cultures
[5] = cMAF fl/fl CD4cre Th17 cells vs control
[6] = mice transferred with EGCG-treated Th17n cells

For NCCC[C@](N)(C(=O)O)C(F)F [DFMO, 2-(difluoromethyl)ornithine], the “antigen-specific recall response / proliferation (thymidine incorporation)” value ([1]; draining lymph node of DFMO treated EAE animals) was “decreases H3 incorporation; also recorded: decreases proliferation of immune cells; also recorded: significantly reduced”, the “DFMO-dependent upregulation of IL-10” value ([2]; Th17n cells, loss of JMJD3, supernatant) was “reduced” and the IL-13 ([2]; pathogenic Th17 cells) was “decreased”. For the same compound, the IL-9 ([2]; protein, Th17n and Th17p cultures) was “promoted; also recorded: promoting”, the IL-17A [2, 4] was “significantly inhibited” and the IL-17F [2, 4] was “significantly inhibited”. For the same compound, the IFNg ([2]; supernatant, Th17n and Th17p) was “did not consistently influence”, the IL-5 ([2]; supernatant, Th17n and Th17p) was “did not consistently influence” and the IL-10 ([2]; supernatant, Th17n and Th17p) was “did not consistently influence”. The IL-13 ([2]; supernatant, Th17n and Th17p) was “did not consistently influence”, the TNFa ([2]; supernatant, Th17n and Th17p) was “did not consistently influence” and the “IL-17+ cells” value ([3]; DFMO at 4-5 days only (expansion phase)) was “no change”. For the same compound, the “IL-17+ cells” value ([3]; DFMO at both days 1-3 and days 4-5) was “decrease”, the “IL-17+ cells” value ([3]; DFMO at days 1-3 only (differentiation)) was “decrease” and the “IL-17 positive CD4 T cells” value ([3]; FACS, Th17 condition not stated) was “decreased”. The cell proliferation ([3]; Th17 cultures) was “less cell proliferation; also recorded: reduced cell proliferation”, the “frequency of Foxp3+ cells / Foxp3 expression” value ([3]; Th17n (non-pathogenic) condition) was “increase; also recorded: increased frequency” and the “upregulation of Foxp3 by DFMO” value ([3]; Th17n cells, absence of JMJD3 (JMJD3fl/flCD4cre)) was “partially abrogated”. For the same compound, the Rorgt expression ([3]; Th17p cells) was “suppressed”, the Tbet expression ([3]; Th17p cells) was “suppressed” and the “effect of DFMO on Foxp3 upregulation” value [3, 5] was “partially rescued”. For the same compound, the “effect of DFMO on expression of IL-17” value [3, 5] was “did not impact”, the “frequency of IL-17+ cells” value ([3]; cells that have divided just once) was “significantly reduced” and the “FoxP3 CD4 T cells” value ([3]; condition not stated) was “increase”. The IL-17 expression ([3]; intracellular staining, both Th17n and Th17p cells) was “suppresses IL-17 expression; also recorded: significantly inhibited” and the Rorgt expression ([3]; pathogenic and non-pathogenic Th17 cells) was “did not consistently alter; also recorded: does not alter”.

With epigallocatechin-3-gallate [EGCG] the “antigen-specific T cell proliferation” value [1, 6] was “only a small difference”, the “secretion of IL-6 in response to antigen” value [1, 6] was “significant increase” and the “secretion of IL-17F in response to antigen” value [1, 6] was “significant increase”. For the same compound, the “secretion of IL-17 in response to antigen” value [1, 6] was “significant increase”, the “secretion of IL-22 in response to antigen” value [1, 6] was “significant increase” and the “cytokine profile / cytokine production” value ([2]; glycolysis enzyme inhibitors, Th17 cell cultures) was “retained their cytokine profile”. The IFNg expression ([3]; Th17n cells) was “upregulation”, the IL-10 ([3]; Th17n cells) was “suppression” and the Tbet expression ([3]; Th17n cells) was “upregulation”. The “IL-17 positive CD4 T cells / IL-17 expression” value ([3]; glycolysis enzyme inhibitors, non-pathogenic or pathogenic Th17 conditions, cells after one division) was “increase”.
